What follows are compounds tested on A549 (assay: Cytotoxicity against human A549 cells by SRB assay).
Assay type: functional, cell-based

| SMILES | IC50 |
| --- | --- |
| CC[C@]12C=CCN3CC[C@@]4(c5cc([C@@]6(C(=O)OC)C[C@H]7C[C@@H](C(C)(F)F)CN(Cc8c6[nH]c6ccc(NC)cc86)C7)c(OC)cc5N(C)[C@H]4[C@@](O)(C(=O)OC)[C@@H]1OC(C)=O)[C@@H]32 | 6.91 µM |
| CC[C@]12C=CCN3CC[C@@]4(c5cc([C@@]6(C(=O)OC)C[C@H]7C[C@@H](C(C)(F)F)CN(Cc8c6[nH]c6ccc(CNCCO)cc86)C7)c(OC)cc5N(C)[C@H]4[C@@](O)(C(=O)OC)[C@@H]1OC(C)=O)[C@@H]32 | 95.5 µM |
| CC[C@]12C=CCN3CC[C@@]4(c5cc([C@@]6(C(=O)OC)C[C@H]7C[C@@H](C(C)(F)F)CN(Cc8c6[nH]c6ccc(CNCCCN9CCOCC9)cc86)C7)c(OC)cc5N(C)[C@H]4[C@@](O)(C(=O)OC)[C@@H]1OC(C)=O)[C@@H]32 | > 100 µM |
| CC[C@]12C=CCN3CC[C@@]4(c5cc([C@@]6(C(=O)OC)C[C@H]7C[C@@H](C(C)(F)F)CN(Cc8c6[nH]c6ccc(CN9CCOCC9)cc86)C7)c(OC)cc5N(C)[C@H]4[C@@](O)(C(=O)OC)[C@@H]1OC(C)=O)[C@@H]32 | 3.93 µM |
| CC[C@]12C=CCN3CC[C@@]4(c5cc([C@@]6(C(=O)OC)C[C@H]7C[C@@H](C(C)(F)F)CN(CCc8c6[nH]c6ccc(N)cc86)C7)c(OC)cc5N(C)[C@H]4[C@@](O)(C(=O)OC)[C@@H]1OC(C)=O)[C@@H]32 | 37.8 µM |
| CC[C@]12C=CCN3CC[C@@]4(c5cc([C@@]6(C(=O)OC)C[C@H]7C[C@@H](C(C)(F)F)CN(CCc8c6[nH]c6ccc(N(C)C)cc86)C7)c(OC)cc5N(C)[C@H]4[C@@](O)(C(=O)OC)[C@@H]1OC(C)=O)[C@@H]32 | 0.22 µM |
| CCCCNCc1ccc2[nH]c3c(c2c1)CN1C[C@H](C[C@@H](C(C)(F)F)C1)C[C@]3(C(=O)OC)c1cc2c(cc1OC)N(C)[C@H]1[C@@](O)(C(=O)OC)[C@H](OC(C)=O)[C@]3(CC)C=CCN4CC[C@]21[C@@H]43 | 1.74 µM |
| CC[C@]12C=CCN3CC[C@@]4(c5cc([C@@]6(C(=O)OC)C[C@H]7C[C@@H](C(C)(F)F)CN(Cc8c6[nH]c6ccc(CNCCN9CCOCC9)cc86)C7)c(OC)cc5N(C)[C@H]4[C@@](O)(C(=O)OC)[C@@H]1OC(C)=O)[C@@H]32 | > 100 µM |
| CC[C@]12C=CCN3CC[C@@]4(c5cc([C@@]6(C(=O)OC)C[C@H]7C[C@@H](C(C)(F)F)CN(Cc8c6[nH]c6ccc(CNc9ccc(OC)cc9)cc86)C7)c(OC)cc5N(C)[C@H]4[C@@](O)(C(=O)OC)[C@@H]1OC(C)=O)[C@@H]32 | 3.52 µM |
| CC[C@]12C=CCN3CC[C@@]4(c5cc([C@@]6(C(=O)OC)C[C@@H]7C[C@@H](C(C)(F)F)CN(Cc8c6[nH]c6ccccc86)C7)c(OC)cc5N(C)[C@H]4[C@@](O)(C(=O)OC)[C@@H]1OC(C)=O)[C@@H]32 [VINFLUNINE] | 0.08 µM |

Reference: ChEMBL document CHEMBL1155953, “Synthesis and biological evaluation of C-12' substituted vinflunine derivatives” (Bioorg Med Chem Lett, 2008)
